Values joined by “and” are separate entries in the source; they are usually repeats but may differ in a detail not shown here. Identical values can stand only once. Like-named read-outs stand apart in the source and are kept apart here.
Tested on: Influenza A H1N1 virus (H1N1-PR8)
Type: cell-based
Conditions: for average inactivation efficiency against virus / inactivation efficiency against the virus: PR8 virus; for average inactivation efficiency against virus: three experiments; for inactivation efficiency against the virus: single experiment

O=C(O[C@@H]1Cc2c(O)cc(O)cc2O[C@@H]1c1cc(O)c(O)c(O)c1)c1cc(O)c(O)c(O)c1 [EGCG, Epigallocatechin gallate]
CPE test, virus replication in cell wells (wells 1-10) (0.2 mM EGCG + PR8 virus, 5 minutes, third experiment, dilution factor 10^1): + | CPE test, virus replication in cell wells (wells 1-10) (0.2 mM EGCG + PR8 virus, 5 minutes, third experiment, dilution factor 10^2): + | CPE test, virus replication in cell wells (wells 1-10) (0.2 mM EGCG + PR8 virus, 5 minutes, third experiment, dilution factor 10^3): + | CPE test, virus replication in cell wells (wells 1-10) (0.2 mM EGCG + PR8 virus, 5 minutes, third experiment, dilution factor 10^4): + | CPE test, virus replication in cell wells (wells 1-10) (0.2 mM EGCG + PR8 virus, 5 minutes, third experiment, dilution factor 10^5): + | CPE test, virus replication in cell wells (wells 1-10) (0.2 mM EGCG + PR8 virus, 5 minutes, third experiment, dilution factor 10^6): − and + | CPE test, virus replication in cell wells (wells 1-10) (0.2 mM EGCG + PR8 virus, 5 minutes, third experiment, dilution factor 10^7): − | CPE test, virus replication in cell wells (wells 1-10) (0.2 mM EGCG + PR8 virus, 5 minutes, third experiment, dilution factor 10^8): − | CPE test (virus replication in the cell wells) (0.2 mM EGCG + PR8 virus, co-incubated 1 minute, third experiment, dilution factor 10^1, wells 1-10): + | CPE test (virus replication in the cell wells) (0.2 mM EGCG + PR8 virus, co-incubated 1 minute, third experiment, dilution factor 10^2, wells 1-10): + | CPE test (virus replication in the cell wells) (0.2 mM EGCG + PR8 virus, co-incubated 1 minute, third experiment, dilution factor 10^3, wells 1-10): + | CPE test (virus replication in the cell wells) (0.2 mM EGCG + PR8 virus, co-incubated 1 minute, third experiment, dilution factor 10^4, wells 1-10): + | CPE test (virus replication in the cell wells) (0.2 mM EGCG + PR8 virus, co-incubated 1 minute, third experiment, dilution factor 10^5, wells 1-10): + | CPE test (virus replication in the cell wells) (0.2 mM EGCG + PR8 virus, co-incubated 1 minute, third experiment, dilution factor 10^6, wells 1-10): + and − | CPE test (virus replication in the cell wells) (0.2 mM EGCG + PR8 virus, co-incubated 1 minute, third experiment, dilution factor 10^7, wells 1-10): − and + | CPE test (virus replication in the cell wells) (0.2 mM EGCG + PR8 virus, co-incubated 1 minute, third experiment, dilution factor 10^8, wells 1-10): − | CPE test (virus replication in the cell wells) (0.2 mM EGCG + virus, PR8, 1 minute, first experiment, dilution factor 10^1, wells 1-10): + | CPE test (virus replication in the cell wells) (0.2 mM EGCG + virus, PR8, 1 minute, first experiment, dilution factor 10^2, wells 1-10): + | CPE test (virus replication in the cell wells) (0.2 mM EGCG + virus, PR8, 1 minute, first experiment, dilution factor 10^3, wells 1-10): + | CPE test (virus replication in the cell wells) (0.2 mM EGCG + virus, PR8, 1 minute, first experiment, dilution factor 10^4, wells 1-10): + | CPE test (virus replication in the cell wells) (0.2 mM EGCG + virus, PR8, 1 minute, first experiment, dilution factor 10^5, wells 1-10): + | CPE test (virus replication in the cell wells) (0.2 mM EGCG + virus, PR8, 1 minute, first experiment, dilution factor 10^6, wells 1-10): − and + | CPE test (virus replication in the cell wells) (0.2 mM EGCG + virus, PR8, 1 minute, first experiment, dilution factor 10^7, wells 1-10): − and + | CPE test (virus replication in the cell wells) (0.2 mM EGCG + virus, PR8, 1 minute, first experiment, dilution factor 10^8, wells 1-10): − | CPE test (virus replication in the cell wells) (0.2 mM EGCG + virus, PR8, 1 minute, second experiment, dilution factor 10^1, wells 1-10): + | CPE test (virus replication in the cell wells) (0.2 mM EGCG + virus, PR8, 1 minute, second experiment, dilution factor 10^2, wells 1-10): + | CPE test (virus replication in the cell wells) (0.2 mM EGCG + virus, PR8, 1 minute, second experiment, dilution factor 10^3, wells 1-10): + | CPE test (virus replication in the cell wells) (0.2 mM EGCG + virus, PR8, 1 minute, second experiment, dilution factor 10^4, wells 1-10): + | CPE test (virus replication in the cell wells) (0.2 mM EGCG + virus, PR8, 1 minute, second experiment, dilution factor 10^5, wells 1-10): + | CPE test (virus replication in the cell wells) (0.2 mM EGCG + virus, PR8, 1 minute, second experiment, dilution factor 10^6, wells 1-10): + and − | CPE test (virus replication in the cell wells) (0.2 mM EGCG + virus, PR8, 1 minute, second experiment, dilution factor 10^7, wells 1-10): − | CPE test (virus replication in the cell wells) (0.2 mM EGCG + virus, PR8, 1 minute, second experiment, dilution factor 10^8, wells 1-10): − | average inactivation efficiency against virus (0.2 mM EGCG, 1 minute): 49.88% | inactivation efficiency against the virus (0.2 mM EGCG, 5 minutes): 84.15% | average inactivation efficiency against virus (0.2 mM EGCG, 5 minutes): 70.91% | CPE test, virus replication in cell wells (wells 1-10) (1 mM EGCG + PR8 virus, 5 minutes, third experiment, dilution factor 10^3): + | CPE test, virus replication in cell wells (wells 1-10) (1 mM EGCG + PR8 virus, 5 minutes, third experiment, dilution factor 10^4): + | CPE test, virus replication in cell wells (wells 1-10) (1 mM EGCG + PR8 virus, 5 minutes, third experiment, dilution factor 10^5): + | CPE test, virus replication in cell wells (wells 1-10) (1 mM EGCG + PR8 virus, 5 minutes, third experiment, dilution factor 10^6): − and + | CPE test, virus replication in cell wells (wells 1-10) (1 mM EGCG + PR8 virus, 5 minutes, third experiment, dilution factor 10^7): − | CPE test, virus replication in cell wells (wells 1-10) (1 mM EGCG + PR8 virus, 5 minutes, third experiment, dilution factor 10^8): − | CPE test (virus replication in the cell wells) (1 mM EGCG + PR8 virus, co-incubated 1 minute, third experiment, dilution factor 10^3, wells 1-10): + | CPE test (virus replication in the cell wells) (1 mM EGCG + PR8 virus, co-incubated 1 minute, third experiment, dilution factor 10^4, wells 1-10): + | CPE test (virus replication in the cell wells) (1 mM EGCG + PR8 virus, co-incubated 1 minute, third experiment, dilution factor 10^5, wells 1-10): + and − | CPE test (virus replication in the cell wells) (1 mM EGCG + PR8 virus, co-incubated 1 minute, third experiment, dilution factor 10^6, wells 1-10): − and + | CPE test (virus replication in the cell wells) (1 mM EGCG + PR8 virus, co-incubated 1 minute, third experiment, dilution factor 10^7, wells 1-10): − | CPE test (virus replication in the cell wells) (1 mM EGCG + PR8 virus, co-incubated 1 minute, third experiment, dilution factor 10^8, wells 1-10): − | CPE test (virus replication in the cell wells) (1 mM EGCG + PR8 virus, co-incubated 5 minutes, first experiment, dilution factor 10^3, wells 1-10): + | CPE test (virus replication in the cell wells) (1 mM EGCG + PR8 virus, co-incubated 5 minutes, first experiment, dilution factor 10^4, wells 1-10): + | CPE test (virus replication in the cell wells) (1 mM EGCG + PR8 virus, co-incubated 5 minutes, first experiment, dilution factor 10^5, wells 1-10): + | CPE test (virus replication in the cell wells) (1 mM EGCG + virus, PR8, 1 minute, first experiment, dilution factor 10^3, wells 1-10): + | CPE test (virus replication in the cell wells) (1 mM EGCG + virus, PR8, 1 minute, first experiment, dilution factor 10^4, wells 1-10): + | CPE test (virus replication in the cell wells) (1 mM EGCG + virus, PR8, 1 minute, first experiment, dilution factor 10^5, wells 1-10): + | CPE test (virus replication in the cell wells) (1 mM EGCG + virus, PR8, 1 minute, first experiment, dilution factor 10^6, wells 1-10): + and − | CPE test (virus replication in the cell wells) (1 mM EGCG + virus, PR8, 1 minute, first experiment, dilution factor 10^7, wells 1-10): − | CPE test (virus replication in the cell wells) (1 mM EGCG + virus, PR8, 1 minute, first experiment, dilution factor 10^8, wells 1-10): − | CPE test (virus replication in the cell wells) (1 mM EGCG + virus, PR8, 1 minute, second experiment, dilution factor 10^1, wells 1-10): + | CPE test (virus replication in the cell wells) (1 mM EGCG + virus, PR8, 1 minute, second experiment, dilution factor 10^2, wells 1-10): + | CPE test (virus replication in the cell wells) (1 mM EGCG + virus, PR8, 1 minute, second experiment, dilution factor 10^3, wells 1-10): + | CPE test (virus replication in the cell wells) (1 mM EGCG + virus, PR8, 1 minute, second experiment, dilution factor 10^4, wells 1-10): + | CPE test (virus replication in the cell wells) (1 mM EGCG + virus, PR8, 1 minute, second experiment, dilution factor 10^5, wells 1-10): + | CPE test (virus replication in the cell wells) (1 mM EGCG + virus, PR8, 1 minute, second experiment, dilution factor 10^6, wells 1-10): − and + | CPE test (virus replication in the cell wells) (1 mM EGCG + virus, PR8, 1 minute, second experiment, dilution factor 10^7, wells 1-10): − | CPE test (virus replication in the cell wells) (1 mM EGCG + virus, PR8, 1 minute, second experiment, dilution factor 10^8, wells 1-10): − | inactivation efficiency against the virus (1 mM EGCG, 1 minute): 87.41% and 80.05% | average inactivation efficiency against virus (1 mM EGCG, 1 minute): 82.50% | inactivation efficiency against the virus (1 mM EGCG, 5 minutes): 87.41% and 84.15% and 90.00% | average inactivation efficiency against virus (1 mM EGCG, 5 minutes): 87.19% | CPE test, virus replication in cell wells (wells 1-10) (5 mM EGCG + PR8 virus, 5 minutes, third experiment, dilution factor 10^4): + and − | CPE test, virus replication in cell wells (wells 1-10) (5 mM EGCG + PR8 virus, 5 minutes, third experiment, dilution factor 10^5): − and + | CPE test, virus replication in cell wells (wells 1-10) (5 mM EGCG + PR8 virus, 5 minutes, third experiment, dilution factor 10^6): − | CPE test, virus replication in cell wells (wells 1-10) (5 mM EGCG + PR8 virus, 5 minutes, third experiment, dilution factor 10^7): − | CPE test, virus replication in cell wells (wells 1-10) (5 mM EGCG + PR8 virus, 5 minutes, third experiment, dilution factor 10^8): − | CPE test (virus replication in the cell wells) (5 mM EGCG + PR8 virus, co-incubated 1 minute, third experiment, dilution factor 10^4, wells 1-10): + | CPE test (virus replication in the cell wells) (5 mM EGCG + PR8 virus, co-incubated 1 minute, third experiment, dilution factor 10^5, wells 1-10): + and − | CPE test (virus replication in the cell wells) (5 mM EGCG + PR8 virus, co-incubated 1 minute, third experiment, dilution factor 10^6, wells 1-10): − and + | CPE test (virus replication in the cell wells) (5 mM EGCG + PR8 virus, co-incubated 1 minute, third experiment, dilution factor 10^7, wells 1-10): − | CPE test (virus replication in the cell wells) (5 mM EGCG + PR8 virus, co-incubated 1 minute, third experiment, dilution factor 10^8, wells 1-10): − | CPE test (virus replication in the cell wells) (5 mM EGCG + PR8 virus, co-incubated 5 minutes, first experiment, dilution factor 10^4, wells 1-10): − | CPE test (virus replication in the cell wells) (5 mM EGCG + PR8 virus, co-incubated 5 minutes, first experiment, dilution factor 10^5, wells 1-10): − | CPE test (virus replication in the cell wells) (5 mM EGCG + PR8 virus, co-incubated 5 minutes, first experiment, dilution factor 10^6, wells 1-10): − | CPE test (virus replication in the cell wells) (5 mM EGCG + PR8 virus, co-incubated 5 minutes, first experiment, dilution factor 10^7, wells 1-10): − | CPE test (virus replication in the cell wells) (5 mM EGCG + PR8 virus, co-incubated 5 minutes, first experiment, dilution factor 10^8, wells 1-10): −

From US20240238242A1, “EGCG buccal tablet and use thereof” (priority 2023, published 2024)
